Patent US20080194877A1, “Benzamidine Derivatives for Treatment and Prevention of Cancer Therapy Induced Mucositis” ([…].p.A., priority 2005, published 2008)
Where “and” joins values, the source holds several entries; their conditions need not be identical. Identical values can stand only once. Like-named read-outs stand apart in the source and are kept apart here.

Key:
TNFα = assay: LPS-induced TNFα release in rat peritoneal macrophages; assay type: cell-based; conditions: LPS 1 μg/ml, 24 h
Source text: (§1) Background to the assay: Nuclear factor-κB (NF-κB), a key element in the genesis of mucositis, has the capacity to upregulate a large panel of genes, including those that result in the production of pro-inflammatory cytokines, TNFα, IL-1 and IL-6, all leading to apoptosis and tissue injury, and to up-regulate genes that can cause the expression of iNOS and cyclooxygnase-2. The third phase of mucositis is indeed characterized by the amplification of signaling triggered by pro-inflammatory cytokines. The effect of compound 1.1 was assessed in rat peritoneal macrophages.
(§2) Primary cell cultures were obtained from male albino rats (SD, 200-250 g, Harlan, Italy), as described in Methods in Enzymology (Methods in Enzymology, vol. LVIII, pages 494-506). Cells were stimulated, the day after plating, with LPS, 1 μg/ml or 0.1 μg/ml as stated, for 24 h. Compounds were added 20 min before stimulation. The stimulation was performed in DMEM, 1 g/l glucose, 50 μg/ml gentamicin. Supernatants and cell lysates were collected and stored at −80° C. until use. Cytokine quantisation in supernatants was determined by means of commercially available ELISA Kits for rat TNFα, rat IL-1β and rat IL-6 (Amersham).
(§3) Activation of macrophages with 1 μg/ml LPS induced an increase over basal in cytokine production.

IL-1β = assay: LPS-induced IL-1β release in rat peritoneal macrophages; assay type: cell-based; conditions: LPS 1 μg/ml, 24 h
Source text: as §1, §2, §3

iNOs protein expression = assay: LPS-induced iNOS protein expression in rat macrophages (Western blot); assay type: cell-based; conditions: 30 μM; LPS 0.1 μg/ml, 24 h
Procedure: as §2
(§4) Western blot analysis of iNOS and COX-2: Cell lysates were analyzed by SDS-PAGE. Proteins were transferred onto PVDF membranes and saturated in blocking buffer. Membranes were incubated for 2 h at RT with the following antibodies: anti-COX-2, anti-iNOS, anti-β-actin and further incubated with a secondary antibody for 45 min at RT. Detection was performed using ECL (Amersham). Quantisation was determined by densitometry analysis using NIH Image software.
(§5) Evaluation of mediator of inflammation such as iNOS and COX-2, was performed in macrophages stimulated with 0.1 μg/ml LPS for 24 h. […]

COX-2 protein expression = assay: LPS-induced COX-2 protein expression in rat macrophages (Western blot); assay type: cell-based; conditions: 30 μM; LPS 0.1 μg/ml, 24 h
Procedure: as §2, §4, §5

IL-6 = assay: LPS-induced IL-6 release in rat peritoneal macrophages; assay type: cell-based; conditions: LPS 1 μg/ml, 24 h
Source text: as §1, §2, §3

[1] = tested on: ROS generation in human PMNL; assay: Inhibition of luminol-dependent chemiluminescence (ROS generation) in PMA-activated human PMNL; assay type: cell-based; conditions: for IC50: 0.1 μM PMA
Procedure: Background to the assay: One of the most important events involved in the intracellular cascade leading to NF-kB activation is the generation of oxidative stress and the increase of ROS; the inhibition of these species can contribute to reduce the direct damage to DNA and subsequent clonogenic cell death, and also to diminish the transcription factors activation. The effect of compound 1.1 on luminol-dependent chemiluminescence assay was assessed in human PMNL.
Human neutrophils were obtained from healthy volunteers. Blood was anti-coagulated with Na-Citrate 0.38% and neutrophils were purified according to Boyum (Boyum A. Scand J Clin Invest 1968;21:77-89). The neutrophil purification was achieved by gradient centrifugation on Histo-paque at 400 g for 30 min. Resulting neutrophils were suspended in PBS plus 0.87 mM CaCl2, 1 mM MgCl2, counted, and diluted to 2.5×10^6/ml. Neutrophil suspension was premixed with luminol (5 μM final). A 200 μl-aliquot of cell suspension was incubated into a 96-well plate, with drugs for 10 min at 37° C. Neutrophils were activated with 0.1 μM phorbol 12-myristate 13-acetate (PMA) and the light emission was monitored at 3 min intervals for 24 min in a HTS7000 plus microplate reader. Results were expressed as reduction of the fluorescent signal recorded for cell activated with PMA alone.
Activation of neutrophils with 0.1 μM PMA induced a time-dependent increase in signal luminescence, with a maximal increase within 10-12 min. […] The data are illustrated in FIG. 1.

rat gastric mucosa = assay: Gastric ulcer induced by indomethacin in rat; assay type: in vivo
Source text: Indomethacin induces the formation of acute gastric mucosal lesions. The histologic damage is represented by necrosis with loss of surface epithelium, submucosal oedema and leukocyte infiltration. The mechanism involves a neutrophil-dependent process inducing a variety of inflammatory mediators such as reactive oxygen species, and direct detrimental action by indomethacin on processes linked to epithelial proliferation and apoptosis. The epithelial repairing process is due to continuity of epithelial cells with healthy cells of gastric pits that can migrate to the basement membrane; re-epithelialization and reconstruction of the mucosal architecture is under the control of growth factors produced locally by regenerating cells.
20 male SD rats (140-160) were used. The animals were deprived of food but not water 24 hours prior the experiment. Gastric ulcer was induced in conscious rats by oral administration of 10 mg/kg/4 ml of indomethacin, suspended in methylcellulose 0.5%. The tested drug was administered 30 min by gavage (os), or 15 min by subcutaneously (sc), before indomethacin.
Four hours after indomethacin administration, the animals were sacrificed by excess of ether. The stomach was dissected out, opened along the greater curvature, and the mucosa was examined by an observer who was unaware of the treatment given. The extent of ulcers was measured with a 10× binocular fitted with a 0.1 mm-division scale. Data are presented as total length of ulcers per group.
The animals were divided into 4 groups of 5 animals, and were treated as follows:
Groups: • 1. 10 mg/kg Compound 1.1, administered prior to 10 mg/kg indomethacin, os. • 2. 5 mg/kg Compound 1.1, administered prior to 10 mg/kg indomethacin, os. • 3. 1 mg/kg Compound 1.1, administered prior to 10 mg/kg indomethacin, os. • 4. vehicle, administered prior to 10 mg/kg indomethacin, os.
Compound 1.1 was given at 1, 5 and 10 mg/kg prior to indomethacin. […] In Compound 1.1 treated groups the levels of ulcerated animals decreased dose-dependently.

[2] = tested on: clonogenic crypt cells of the small intestine; assay: Mouse mucositis model (clonogenic crypt cell death induced by whole body irradiation); assay type: in vivo; conditions: for crypt width (μm) / no. crypts/circumference: average +/− sd; for corrected crypts/circumference: corrected for crypt width
Source text: There are thought to be between four and sixteen actual stem cells in each crypt of the small intestine. There are also a further reserve of clonogenic cells which are capable of regenerating the crypt when all the actual stem cells have been killed. The survival of these clonogenic cells is therefore key to the survival of the crypt and the restoration of an intact epithelial lining following cytotoxic injury (only one clonogenic cell needs to survive to ensure the survival of the crypt, and therefore the maintenance of an intact epithelium). Growth factors and other molecules can be used to manipulate the sensitivity of these cells to cytotoxic agents, and thereby reduce the severity of gastrointestinal and oral mucositis. Factors given prior to a cytotoxic insult may increase clonogenic cell number (thereby increasing the probability of clonogen survival) or act to arrest the cell cycle in such cells (thereby making them more resistant to damage or death). […] A combination of both protocols could give maximum protection to the epithelium.
The effects of administration for 3 days before radiation exposure were tested.
30 adult male BDF1 mice (aged 10-12 weeks) were used. The animals were housed for 2 weeks in individually ventilated cages on a 12 hr light:dark cycle to stabilize the circadian rhythm. Animals were allowed food and water ad libitum throughout.
The animals were divided into 5 groups of 6 animals, and were treated as follows:
Groups: • 1. Gavage 20 mg/kg Compound 1.1 72, 48 and 24 hrs prior to 13Gy X-ray exposure (whole body). • 2. Gavage 10 mg/kg Compound 1.1 72, 48 and 24 hrs prior to 13Gy X-ray exposure (whole body). • 3. Gavage 5 mg/kg Compound 1.1 72, 48 and 24 hrs prior to 13Gy X-ray exposure (whole body). • 4. Gavage vehicle 72, 48 and 24 hrs prior to 13Gy X-ray exposure (whole body). • 5. Untreated, un-irradiated controls.
Intestinal damage was induced using a single dose of 13Gy X-irradiation. Four days after irradiation the animals were sacrificed. The small intestine was removed and fixed in Carnoy's fixative prior to processing for histological analysis. 3 μm sections were cut and stained with haematoxylin and eosin. Foci of regeneration (surviving crypts with one or more clonogenic cells) were clearly visible in the irradiated sections. Other than these foci the mesenchyme was entirely denuded; these animals would develop diarrhea and die due to mucositis if allowed to live beyond four days.
For each animal ten intestinal circumferences were analyzed (60 per group)—a circumference is equivalent to a given length of intestine and therefore a convenient baseline unit of length. The number of surviving crypts per circumference was scored and the average per group determined. Only crypts containing 10 or more strongly haematoxylin and eosin stained cells (excluding Paneth cells) and only intact circumferences not containing Peyers patches were scored (Peyers patches influence both the number of crypts in a normal circumference and the ability of a crypt to survive insult).
The average crypt width (measured at its widest point) was also measured in order to correct for scoring errors due to crypt size difference. The correction is applied thus: Corrected number of crypts/circumference=

[3] = 25° C.
[4] = 5 mg/kg, both administration protocols (os, sc)
[5] = 5 mg/kg gavage for 3 days pre 13Gy irradiation
[6] = 10 mg/kg gavage for 3 days pre 13Gy irradiation
[7] = 20 mg/kg gavage for 3 days pre 13Gy irradiation

CCCCCNC(=S)Nc1ccc(NC(C)=N)cc1 [Compound 1.1, N-[4-(N-acetamidine)phenyl]-N′-pentyl thiourea]
IC50 (TNFα): 54 µM
IC50 (IL-1β): 30 µM
% of inhibition iNOs protein expression (iNOs protein expression): 79%
% of inhibition COX-2 protein expression (COX-2 protein expression): 53%
IC50 (IL-6): 63 µM
% of inhibition of chemiluminescence ([1]; 1 μM): 20%
Inhibition of ROS generation ([1]; 30 μM (data not shown)): completely inhibited ROS generation
IC50 ([1]; rising phase, at 15 min, read-out: IC50 luminol-enhanced chemiluminescence, rising phase): 6.4 ± 0.6 µM
IC50 ([1]; steady phase, at 24 min, read-out: IC50 luminol-enhanced chemiluminescence, steady phase): 2.9 ± 0.2 µM
Effectiveness against ulcer at the lower dose (rat gastric mucosa; 1 mg/kg): effective only in the os protocol administration
Reduction of extent of ulceration (rat gastric mucosa; 5 mg/kg): 80-90%
Incidence of ulcer (animals per group) (rat gastric mucosa; [4]): 3/5
Incidence of ulcer reduced to (rat gastric mucosa; [4]): ~50%
Ulcerated animals (maximal effect) (rat gastric mucosa; 10 mg/kg prior to 10 mg/kg indomethacin): no animals ulcerated
Survival and adverse effects (rat gastric mucosa; rat, 1, 5 and 10 mg/kg): no obvious adverse effects
crypt width (μm) [2, 5]: 68.54 +/− 6.6 μm
no. crypts/circumference [2, 5]: 9.6 +/− 3.4
corrected crypts/circumference [2, 5]: 4.7 +/− 1.3
crypt width (μm) [2, 6]: 68.25 +/− 2.4 μm
no. crypts/circumference [2, 6]: 9.2 +/− 4.7
corrected crypts/circumference [2, 6]: 4.5 +/− 2.4
Increase of crypt survival versus vehicle ([2]; 20 mg/kg): 1.9 ×
crypt width (μm) [2, 7]: 66.19 +/− 3.0 μm
no. crypts/circumference [2, 7]: 13.2 +/− 5.7
corrected crypts/circumference [2, 7]: 6.7±3.0 and 6.7 +/− 3.0
Circumferences without surviving crypt ([2]; 20 mg/kg, 4% of circumference in vehicle treated mouse): prevented the absence of surviving crypt
Increase of crypt survival versus vehicle ([2]; lower doses (5 and 10 mg/kg)): about 1.3 times
Survival and adverse effects ([2]; mouse, 5, 10 and 20 mg/kg): no obvious adverse effects

CCCCCNC(=S)Nc1ccc(NC(C)=N)cc1.O=C(O)/C=C\C(=O)O [Maleate, N-[4-(N-acetamidine)phenyl]-N′-pentyl thiourea maleate]
Solubility in water [3]: 3.12 mg/mL
Solubility in water (%) [3]: 0.31%

CCCCCNC(=S)Nc1ccc(NC(C)=N)cc1.CS(=O)(=O)O [Methanesulphonate, N-[4-(N-acetamidine)phenyl]-N′-pentyl thiourea methanesulphonate]
Solubility in water [3]: >32 mg/mL
Solubility in water (%) [3]: >32%
